Data on one molecule can be found in BindingDB's records for doi:10.1016/j.ejmech.2016.03.016 (Peking University, 2016).

The target in this assay is Neuronal acetylcholine receptor subunit alpha-7 (Homo sapiens, UniProt P36544). The experiment in a line: Agonist activity at human alpha7 nAChR expressed in xenopus oocytes preincubated for 10 mins followed by acetylcholine addition by patch clamp electrophysiological assay. (In general: In patch-clamp work, channel activity is measured electrically.)
Chain of Neuronal acetylcholine receptor subunit alpha-7 (P36544 whole entry): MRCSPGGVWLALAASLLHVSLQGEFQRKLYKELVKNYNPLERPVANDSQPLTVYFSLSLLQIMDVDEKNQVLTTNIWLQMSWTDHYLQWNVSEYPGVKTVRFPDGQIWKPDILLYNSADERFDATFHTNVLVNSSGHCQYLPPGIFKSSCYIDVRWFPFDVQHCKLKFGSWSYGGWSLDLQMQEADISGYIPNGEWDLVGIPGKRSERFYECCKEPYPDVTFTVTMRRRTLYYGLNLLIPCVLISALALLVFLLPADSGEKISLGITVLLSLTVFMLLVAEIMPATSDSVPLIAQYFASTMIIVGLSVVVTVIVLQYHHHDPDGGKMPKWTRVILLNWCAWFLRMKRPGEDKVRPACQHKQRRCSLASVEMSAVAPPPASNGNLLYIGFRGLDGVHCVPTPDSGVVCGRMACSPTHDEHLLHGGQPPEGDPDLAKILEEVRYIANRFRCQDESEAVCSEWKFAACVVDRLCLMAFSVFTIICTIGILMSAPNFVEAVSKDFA

For the molecule `O=C(N[C@H]1CN2CCC1CC2)c1cc2cccc(Br)n2c1`, the half-maximal effective concentration (EC50) (in general, the concentration at which the effect is half-maximal) was determined as 1780 nM. This lies in the single-digit micromolar range.
